Compound: CCN1CCN(c2ccc(Nc3cc(N(C)C(=O)Nc4c(Cl)c(OC)cc(OC)c4Cl)ncn3)cc2)CC1 [BGJ398] + O=C(CCCCCCC(=O)Nc1ccccc1)NO [Vorinostat] (partner 1 µM)
Assay: relative viability (nuclei count vs DMSO), 5 days (fraction); higher = more cells survive
Conditions: first compound 0.01 µM
Procedure, shortened: (§1)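 Lung cancer cell lines, seeded in 1536-well plates, were treated the following day by pin tool with a single drug or with five library-drug doses (not always all listed) in √10 steps on top of a fixed anchor-drug dose. Cells were fixed and nuclei stained in one step after 5 days, and nuclei were counted. Relative viability is the nuclei count for treated wells divided by that for vehicle wells, reported as medians of duplicate plates.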

Row | Cell Line | relative viability
1 | NCI-H522 | 0.926
2 | NCI-H727 | 1.06
3 | NCI-H1650 | 0.476
4 | NCI-H1993 | 0.968
5 | SW 1573 | 0.742
6 | NCI-H838 | 0.664
7 | LCLC-103H | 0.769
8 | NCI-H520 | 0.637
9 | NCI-H2126 | 0.768
10 | EMC-BAC-2 | 0.707
11 | NCI-H2085 | 0.741
12 | HCC-366 | 0.337
13 | NCI-H1666 | 1.06
14 | NCI-H596 | 0.612
15 | LK-2 | 0.296
16 | NCI-H2087 | 0.552
17 | NCI-H2342 | 0.845
18 | SK-MES-1 | 1.05
19 | IA-LM | 0.797
20 | NCI-H2170 | 0.823
21 | HCC-44 | 1.12
22 | SW 900 | 0.534
23 | NCI-H1648 | 1.6
24 | NCI-H1395 | 0.754
25 | NCI-H1793 | 0.767
26 | NCI-H1944 | 0.525
27 | ABC-1 | 1.61
28 | NCI-H358 | 0.614

Same assay, conditions: first compound 0.03162 µM

Row | Cell Line | relative viability
29 | NCI-H522 | 0.802
30 | NCI-H727 | 1.26
31 | NCI-H1650 | 0.493
32 | NCI-H1993 | 0.93
33 | SW 1573 | 0.796
34 | NCI-H838 | 0.697
35 | LCLC-103H | 0.784
36 | NCI-H520 | 0.563
37 | NCI-H2126 | 0.787
38 | EMC-BAC-2 | 0.591
39 | NCI-H2085 | 0.751
40 | HCC-366 | 0.385
41 | NCI-H1666 | 0.963
42 | NCI-H596 | 0.619
43 | LK-2 | 0.334
44 | NCI-H2087 | 0.442
45 | NCI-H2342 | 0.703
46 | SK-MES-1 | 1.11
47 | IA-LM | 0.806
48 | NCI-H2170 | 0.814
49 | HCC-44 | 1.14
50 | SW 900 | 0.425
51 | NCI-H1395 | 0.683
52 | NCI-H1793 | 0.574
53 | NCI-H1944 | 0.529
54 | ABC-1 | 0.855
55 | NCI-H358 | 0.769

Same assay, conditions: first compound 0.1 µM

Row | Cell Line | relative viability
56 | NCI-H522 | 0.935
57 | NCI-H727 | 1.21
58 | NCI-H1650 | 0.537
59 | NCI-H1993 | 0.703
60 | SW 1573 | 0.713
61 | NCI-H838 | 0.695
62 | LCLC-103H | 0.68
63 | NCI-H520 | 0.503
64 | NCI-H2126 | 0.861
65 | EMC-BAC-2 | 0.316
66 | NCI-H2085 | 0.863
67 | HCC-366 | 0.371
68 | NCI-H1666 | 1.05
69 | NCI-H596 | 0.674
70 | LK-2 | 0.247
71 | NCI-H2087 | 0.816
72 | NCI-H2342 | 0.959
73 | SK-MES-1 | 1.03
74 | IA-LM | 1.09
75 | NCI-H2170 | 0.847
76 | HCC-44 | 1.14
77 | SW 900 | 0.562
78 | NCI-H1648 | 0.363
79 | NCI-H1395 | 0.534
80 | NCI-H1793 | 0.728
81 | NCI-H1944 | 0.55
82 | ABC-1 | 1.04
83 | NCI-H358 | 0.704

Same assay, conditions: first compound 0.3162 µM

Row | Cell Line | relative viability
84 | NCI-H522 | 1.01
85 | NCI-H727 | 1.22
86 | NCI-H1650 | 0.422
87 | NCI-H1993 | 0.691
88 | SW 1573 | 0.854
89 | NCI-H838 | 0.633
90 | LCLC-103H | 0.697
91 | NCI-H520 | 0.269
92 | NCI-H2126 | 0.775
93 | EMC-BAC-2 | 0.366
94 | NCI-H2085 | 0.832
95 | HCC-366 | 0.391
96 | NCI-H1666 | 0.986
97 | NCI-H596 | 0.508
98 | LK-2 | 0.225
99 | NCI-H2087 | 0.679
100 | NCI-H2342 | 0.711
101 | SK-MES-1 | 1.09
102 | IA-LM | 0.972
103 | NCI-H2170 | 0.821
104 | HCC-44 | 1.1
105 | SW 900 | 0.261
106 | NCI-H1648 | 0.46
107 | NCI-H1395 | 0.469
108 | NCI-H1793 | 0.515
109 | NCI-H1944 | 0.49
110 | NCI-H358 | 0.635

Same assay, conditions: first compound 1 µM

Row | Cell Line | relative viability
111 | NCI-H522 | 0.888
112 | NCI-H727 | 0.858
113 | NCI-H1650 | 0.448
114 | NCI-H1993 | 0.892
115 | SW 1573 | 0.786
116 | NCI-H838 | 0.629
117 | LCLC-103H | 0.602
118 | NCI-H520 | 0.332
119 | NCI-H2126 | 0.765
120 | EMC-BAC-2 | 0.413
121 | NCI-H2085 | 0.815
122 | HCC-366 | 0.255
123 | NCI-H1666 | 0.916
124 | NCI-H596 | 0.528
125 | LK-2 | 0.207
126 | NCI-H2087 | 0.657
127 | NCI-H2342 | 0.801
128 | SK-MES-1 | 0.913
129 | IA-LM | 0.894
130 | NCI-H2170 | 0.861
131 | HCC-44 | 1.09
132 | SW 900 | 0.24
133 | NCI-H1648 | 0.369
134 | NCI-H1395 | 0.495
135 | NCI-H1793 | 0.421
136 | NCI-H1944 | 0.471
137 | ABC-1 | 0.937
138 | NCI-H358 | 0.824

Compound: C1=CC2=NC=CN=C2C=C1/C=C/3\C(=O)NC(=O)S3 + Nc1nc2[nH]cc(CCc3ccc(C(=O)N[C@@H](CCC(=O)O)C(=O)O)cc3)c2c(=O)[nH]1 [Pemetrexed] (partner 0.2 µM)
Assay: as above
Conditions: first compound 0.02 µM
Procedure, shortened: as §1

Row | Cell Line | relative viability
139 | NCI-H522 | 1
140 | NCI-H1650 | 0.376
141 | NCI-H1993 | 0.528
142 | SW 1573 | 0.883
143 | NCI-H838 | 0.247
144 | LCLC-103H | 0.464
145 | NCI-H520 | 0.684
146 | NCI-H2126 | 0.65
147 | EMC-BAC-2 | 0.402
148 | NCI-H2085 | 0.907
149 | HCC-366 | 0.117
150 | NCI-H1666 | 0.898
151 | NCI-H596 | 0.498
152 | LK-2 | 0.198
153 | NCI-H2087 | 0.612
154 | NCI-H2342 | 0.615
155 | SK-MES-1 | 0.99
156 | NCI-H2170 | 0.29
157 | HCC-44 | 0.578
158 | SW 900 | 0.491
159 | NCI-H1648 | 0.648
160 | NCI-H1395 | 0.965
161 | NCI-H1792 | 0.755
162 | NCI-H1793 | 0.726
163 | NCI-H1563 | 0.753
164 | NCI-H1944 | 0.537
165 | NCI-H358 | 0.166

Same assay, conditions: first compound 0.06325 µM

Row | Cell Line | relative viability
166 | NCI-H522 | 0.871
167 | NCI-H1650 | 0.381
168 | NCI-H1993 | 0.665
169 | SW 1573 | 1.1
170 | NCI-H838 | 0.272
171 | LCLC-103H | 0.438
172 | NCI-H520 | 0.726
173 | NCI-H2126 | 0.772
174 | EMC-BAC-2 | 0.424
175 | NCI-H2085 | 0.917
176 | NCI-H1666 | 0.548
177 | NCI-H596 | 0.541
178 | LK-2 | 0.326
179 | NCI-H2087 | 0.734
180 | NCI-H2342 | 0.859
181 | SK-MES-1 | 1.01
182 | NCI-H2170 | 0.268
183 | HCC-44 | 0.688
184 | SW 900 | 0.471
185 | NCI-H1648 | 0.576
186 | NCI-H1395 | 0.779
187 | NCI-H1793 | 0.74
188 | NCI-H1563 | 0.684
189 | NCI-H1944 | 0.587
190 | NCI-H358 | 0.18

Same assay, conditions: first compound 0.2 µM

Row | Cell Line | relative viability
191 | NCI-H522 | 1.12
192 | NCI-H1650 | 0.319
193 | NCI-H1993 | 0.607
194 | SW 1573 | 0.802
195 | NCI-H838 | 0.25
196 | LCLC-103H | 0.473
197 | NCI-H520 | 0.71
198 | NCI-H2126 | 0.684
199 | EMC-BAC-2 | 0.44
200 | NCI-H2085 | 0.92
201 | HCC-366 | 0.163
202 | NCI-H1666 | 0.838
203 | NCI-H596 | 0.543
204 | LK-2 | 0.276
205 | NCI-H2087 | 0.632
206 | NCI-H2342 | 0.713
207 | SK-MES-1 | 0.953
208 | NCI-H2170 | 0.287
209 | HCC-44 | 0.667
210 | SW 900 | 0.481
211 | NCI-H1648 | 0.649
212 | NCI-H1395 | 0.975
213 | NCI-H1792 | 0.756
214 | NCI-H1793 | 0.837
215 | NCI-H1563 | 0.916
216 | NCI-H1944 | 0.575
217 | NCI-H358 | 0.177

Same assay, conditions: first compound 0.6325 µM

Row | Cell Line | relative viability
218 | NCI-H522 | 0.925
219 | NCI-H1650 | 0.357
220 | NCI-H1993 | 0.54
221 | SW 1573 | 0.862
222 | NCI-H838 | 0.238
223 | LCLC-103H | 0.448
224 | NCI-H520 | 0.783
225 | NCI-H2126 | 0.713
226 | EMC-BAC-2 | 0.434
227 | NCI-H2085 | 0.892
228 | HCC-366 | 0.164
229 | NCI-H1666 | 0.96
230 | NCI-H596 | 0.533
231 | LK-2 | 0.267
232 | NCI-H2087 | 0.623
233 | NCI-H2342 | 0.759
234 | SK-MES-1 | 0.884
235 | NCI-H2170 | 0.278
236 | HCC-44 | 0.675
237 | NCI-H1395 | 0.867
238 | NCI-H1792 | 0.831
239 | NCI-H1793 | 0.727
240 | NCI-H1563 | 0.781
241 | NCI-H1944 | 0.564
242 | NCI-H358 | 0.186

Same assay, conditions: first compound 2 µM

Row | Cell Line | relative viability
243 | NCI-H522 | 0.747
244 | NCI-H1650 | 0.394
245 | NCI-H1993 | 0.449
246 | SW 1573 | 0.711
247 | NCI-H838 | 0.197
248 | LCLC-103H | 0.447
249 | NCI-H520 | 0.711
250 | NCI-H2126 | 0.463
251 | EMC-BAC-2 | 0.417
252 | NCI-H2085 | 0.807
253 | HCC-366 | 0.21
254 | NCI-H1666 | 0.759
255 | NCI-H596 | 0.483
256 | LK-2 | 0.148
257 | NCI-H2087 | 0.615
258 | NCI-H2342 | 0.644
259 | SK-MES-1 | 0.837
260 | NCI-H2170 | 0.263
261 | HCC-44 | 0.655
